Experimental data from patent US6872729B2, “Pyrimidinylbenzimidazole and triazinylbenzimidazole derivatives and agricultural/horticultural fungicides” (Kumiai Chemical Industry Co., Ltd., priority 1998, dated 2005).

tested on: Erysiphe graminis; experiment: Test for preventive effect on wheat powdery mildew; type: in vivo; settings: wheat (Norin-61-go) seedlings, 500 ppm active ingredient, preventive treatment; diseased area of first leaves 10 days after inoculation with Erysiphe graminis
Description: Test for Preventive Effect on Wheat Powdery Mildew 9 Wheat seeds (variety: Norin-61-go) were sown in each 9 cm×9 cm polyvinyl chloride pot, grown in a greenhouse for 8 days, then treated with 10 ml per pot of aqueous solutions of wettable powders prepared in accordance with Formulation Example 2, at a concentration of 500 ppm in terms of the active ingredients and dried in the air. Then, the seedlings were inoculated with Erysiphe graminis spores by sprinkle over the plant and placed in a greenhouse of from 20 to 25° C. 10 days after the inoculation, the total diseases area of the first leaves in each pot was observed and evaluated on the basis of the standards shown in Table 67. [table]

Question: With COc1nc(-c2ccccc2)nc(-n2c(C)nc3cc(C)ccc32)n1 [Compound I-1058] as the molecule, how does the Biological effectiveness read?
Answer: A (No diseased area)

Question: CCc1cc(CC)nc(-n2c(C)nc3ccc(Cl)cc32)n1 [Compound I-1098] was tested. Which Biological effectiveness did it give?
Answer: A (No diseased area)

Question: COc1cc(OC)nc(-n2c(C#N)nc3ccccc32)n1 [Compound I-38] was tested. Which Biological effectiveness did it give?
Answer: B (Diseased area of less than 25%)

Question: For CCOc1nc(OCC)nc(-n2c(C(Cl)(Cl)Cl)nc3cc(Cl)ccc32)n1 [Compound I-550], which Biological effectiveness is on record?
Answer: A (No diseased area)

Question: For COc1nc(OC)nc(-n2cnc3cc(C)c(C)cc32)n1 [Compound I-176], which Biological effectiveness is on record?
Answer: A (No diseased area)

Question: With C#CCOc1cc(C)nc(-n2cnc3cc(C)ccc32)n1 [Compound I-895] as the molecule, how does the Biological effectiveness read?
Answer: B (Diseased area of less than 25%)

Question: How did the Biological effectiveness turn out when CCOc1ccnc(-n2cnc3cc(Cl)ccc32)n1 [Compound I-692] was run?
Answer: B (Diseased area of less than 25%)

Question: For COc1cc(OC)nc(-n2c(C(F)(F)F)nc3ccc(C)cc32)n1 [Compound I-307], which Biological effectiveness is on record?
Answer: A (No diseased area)

Question: CCc1ccc2c(c1)ncn2-c1nc(OC)nc(OC)n1 [Compound I-134] was tested. Which Biological effectiveness did it give?
Answer: A (No diseased area)

Question: COc1nc(OC)nc(-n2c(C)nc3cc(C(C)C)ccc32)n1 [Compound I-221] was tested. Which Biological effectiveness did it give?
Answer: B (Diseased area of less than 25%)

Question: How did the Biological effectiveness turn out when C=CCOc1nc(OCC=C)nc(-n2c(C)nc3cc(Cl)ccc32)n1 [Compound I-601] was run?
Answer: A (No diseased area)

Question: How did the Biological effectiveness turn out when COc1nc(C)nc(-n2c(C(F)(F)F)nc3cc(C)ccc32)n1 [Compound I-762] was run?
Answer: A (No diseased area)

Question: COc1ccnc(-n2c(C)nc3cc(C)ccc32)n1 [Compound I-672] was tested. Which Biological effectiveness did it give?
Answer: B (Diseased area of less than 25%)

Question: For CCCOc1nc(C)nc(-n2c(C)nc3cc(C)ccc32)n1 [Compound I-831], which Biological effectiveness is on record?
Answer: B (Diseased area of less than 25%)

Question: COc1nc(C2CC2)nc(-n2c(C(F)(F)F)nc3cc(C)ccc32)n1 [Compound I-1022] was tested. Which Biological effectiveness did it give?
Answer: A (No diseased area)

Question: How did the Biological effectiveness turn out when COc1cc(OC)nc(-n2cnc3cc(C(F)(F)F)ccc32)n1 [Compound I-87] was run?
Answer: A (No diseased area)

Question: How did the Biological effectiveness turn out when COc1cc(OC)nc(-n2c(C)nc3cc(Cl)ccc32)n1 [Compound I-184] was run?
Answer: A (No diseased area)

Question: How did the Biological effectiveness turn out when COc1cc(OC)nc(-n2c(C3CC3)nc3ccccc32)n1 [Compound I-10] was run?
Answer: B (Diseased area of less than 25%)

Question: For COc1nc(OC)nc(-n2c(C(C)C)nc3cc(Cl)ccc32)n1 [Compound I-359], which Biological effectiveness is on record?
Answer: A (No diseased area)

Question: COc1nc(OC)nc(-n2c(C)nc3cc(C(=O)c4ccccc4)ccc32)n1 [Compound I-235] was tested. Which Biological effectiveness did it give?
Answer: A (No diseased area)

Question: Which Biological effectiveness does the source give for CCCOc1nc(OCCC)nc(-n2c(C)nc3cc(Cl)ccc32)n1 [Compound I-580] here?
Answer: A (No diseased area)

Question: How did the Biological effectiveness turn out when CCc1ccc2c(c1)nc(C)n2-c1nc(OC)nc(OC)n1 [Compound I-219] was run?
Answer: A (No diseased area)

Question: With COc1nc(OC)nc(-n2c(Cl)nc3ccccc32)n1 [Compound I-41] as the molecule, how does the Biological effectiveness read?
Answer: A (No diseased area)

Question: How did the Biological effectiveness turn out when COc1cc(OC)nc(-n2c(C(Cl)(Cl)Cl)nc3ccc(C)cc32)n1 [Compound I-404] was run?
Answer: B (Diseased area of less than 25%)

Question: Which Biological effectiveness does the source give for CCc1nc2cc(Cl)ccc2n1-c1nc(OC)nc(OC)n1 [Compound I-346] here?
Answer: A (No diseased area)

Question: For CCOc1cc(OCC)nc(-n2cnc3cc(Cl)ccc32)n1 [Compound I-480], which Biological effectiveness is on record?
Answer: A (No diseased area)

Question: CCc1cc(CC)nc(-n2cnc3cc(C)ccc32)n1 [Compound I-1094] was tested. Which Biological effectiveness did it give?
Answer: A (No diseased area)

Question: How did the Biological effectiveness turn out when C=CCOc1cc(C)nc(-n2cnc3ccccc32)n1 [Compound I-883] was run?
Answer: A (No diseased area)

Question: How did the Biological effectiveness turn out when COc1cc(OC)nc(-n2c(S(C)(=O)=O)nc3cc(Cl)ccc32)n1 [Compound I-423] was run?
Answer: A (No diseased area)

Question: COc1cc(OC)nc(-n2c(Cl)nc3cc(Cl)ccc32)n1 [Compound I-256] was tested. Which Biological effectiveness did it give?
Answer: A (No diseased area)
